Drawing on patent publication US11718622B2, “Heterocyclic adenosine receptor antagonists” (Exelixis, Inc., priority 2020, dated 2023), this text covers IC50 for 33 molecules.

A word on the IC50: it is the concentration needed to halve the response being measured. A low value points to inhibition by little substance.

Assay [1] addresses Adenosine A2a (ADORA2A) receptor (Homo sapiens (Human), UniProt P29274). As to the kind of experiment: ADORA2A Receptor Binding Assay. As to conditions: radioligand binding, membrane stock. A digest of the protocol:
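Test compounds incubated with A2a receptor membranes and a ³H-labelled radioligand for 2 hours at room temperature, then filtered through PEI-presoaked GF/C plates and washed. Filter-bound ³H counted by scintillation; % inhibition calculated from background-subtracted signal relative to high control.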

Assay [2] deals with Adenosine A2B (ADORA2B) receptor (Homo sapiens (Human), UniProt P29275). As to the kind of experiment: ADORA2B Receptor Binding Assay. The following applies: radioligand binding, membrane stock. A digest of the protocol:
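Radioligand competition binding on human A2B receptor membranes, 1 h at room temperature, then filtration through BSA-presoaked GF/C filters and ³H counting by scintillation. Inhibition expressed as % of high control after background subtraction.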

Adenosine A2a (ADORA2A) receptor, sequence (P29274 whole entry): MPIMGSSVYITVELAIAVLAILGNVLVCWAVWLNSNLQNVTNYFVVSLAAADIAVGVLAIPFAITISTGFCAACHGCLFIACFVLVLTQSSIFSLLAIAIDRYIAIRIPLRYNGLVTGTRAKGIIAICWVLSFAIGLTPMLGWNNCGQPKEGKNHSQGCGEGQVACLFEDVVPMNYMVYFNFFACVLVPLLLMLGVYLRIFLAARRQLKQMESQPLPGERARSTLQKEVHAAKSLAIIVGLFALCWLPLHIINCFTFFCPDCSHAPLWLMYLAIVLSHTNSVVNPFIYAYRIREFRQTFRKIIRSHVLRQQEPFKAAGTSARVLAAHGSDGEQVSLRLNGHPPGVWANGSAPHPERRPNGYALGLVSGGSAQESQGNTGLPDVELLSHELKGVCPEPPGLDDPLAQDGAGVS
Adenosine A2B (ADORA2B) receptor, sequence (P29275 whole entry): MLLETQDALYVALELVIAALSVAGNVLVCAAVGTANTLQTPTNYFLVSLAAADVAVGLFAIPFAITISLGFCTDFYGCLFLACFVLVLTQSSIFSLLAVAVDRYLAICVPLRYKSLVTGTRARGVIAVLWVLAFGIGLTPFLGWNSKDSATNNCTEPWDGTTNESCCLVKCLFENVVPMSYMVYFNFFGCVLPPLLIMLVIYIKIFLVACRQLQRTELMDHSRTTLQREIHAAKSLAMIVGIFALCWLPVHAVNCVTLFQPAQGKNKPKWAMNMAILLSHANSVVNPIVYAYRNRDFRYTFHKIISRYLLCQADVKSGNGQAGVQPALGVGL

Turning to `Cc1nc2cc(NC(=O)C3CC3)nc(-c3cccc(F)c3)n2n1` [Compound 131, N-[5-(3-fluorophenyl)-2-methyl-[1,2,4]triazolo[1,5-c]pyrimidin-7-yl]cyclopropanecarboxamide], the IC50 in assay [1] was under 10 nM; in assay [2] it was 10 to 100 nM.

Take `CC(=O)Nc1cc2nc(C)nn2c(-c2cccc(F)c2)n1` [Compound 132, N-[5-(3-fluorophenyl)-2-methyl-[1,2,4]triazolo[1,5-c]pyrimidin-7-yl]acetamide]: the values for the IC50 in assay [1] and in assay [2] were 10 to 100 nM and 100 to 1000 nM, respectively.

On to `CC(=O)Nc1cc2nc(C(F)F)nn2c(-c2ccco2)n1` [Compound 133, N-[2-(difluoromethyl)-5-(furan-2-yl)-[1,2,4]triazolo[1,5-c]pyrimidin-7-yl]acetamide], for which the IC50 in assay [1] and in assay [2] was under 10 nM in each case.

On to `Cc1nc2c3cc(C(C)(C)O)[nH]c3nc(-c3ccc(C)o3)n2n1` [Compound 134, 2-[4-methyl-7-(5-methylfuran-2-yl)-3,5,6,8,10-pentazatricyclo[7.3.0.0^2,6]dodeca-1(9),2,4,7,11-pentaen-11-yl]propan-2-ol], for which the IC50 in assay [1] and in assay [2] was under 10 nM each time.

Take `CN1CC(c2nc3cc(NC(=O)C4CC4)nc(-c4ccco4)n3n2)C1` [Compound 135, N-[5-(furan-2-yl)-2-(1-methylazetidin-3-yl)-[1,2,4]triazolo[1,5-c]pyrimidin-7-yl]cyclopropanecarboxamide]: the IC50 is under 10 nM in assay [1] and over 1000 nM in assay [2].

Take `Cc1nc2c3cccnc3nc(-c3ccc(C)o3)n2n1` [Compound 136, 4-methyl-7-(5-methylfuran-2-yl)-3,5,6,8,10-pentazatricyclo[7.4.0.0^2,6]trideca-1(9),2,4,7,10,12-hexaene]: the IC50 in assay [1] and in assay [2] was over 1000 nM each time.

For `Cc1nc2c3cccnc3nc(-c3ccco3)n2n1` [Compound 137, 7-(furan-2-yl)-4-methyl-3,5,6,8,10-pentazatricyclo[7.4.0.0^2,6]trideca-1(9),2,4,7,10,12-hexaene], the IC50 in assay [1] and in assay [2] was over 1000 nM each time.

With `Nc1nc(-c2ccccc2)n2nc(CF)nc2c1Cl` [Compound 138, 8-chloro-2-(fluoromethyl)-5-phenyl-[1,2,4]triazolo[1,5-c]pyrimidin-7-amine], the IC50 in assay [1] was under 10 nM; in assay [2] it was 10 to 100 nM.

In the case of `CC(=O)Nc1cc2nc(CF)nn2c(-c2ccco2)n1` [Compound 139, N-[2-(fluoromethyl)-5-(furan-2-yl)-[1,2,4]triazolo[1,5-c]pyrimidin-7-yl]acetamide], the IC50 in assay [1] was under 10 nM; in assay [2], 10 to 100 nM.

Regarding `CNC(=O)Nc1cc2nc(C)nn2c(-c2ccc(F)c(F)c2)n1` [Compound 140, 1-[5-(3,4-difluorophenyl)-2-methyl-[1,2,4]triazolo[1,5-c]pyrimidin-7-yl]-3-methylurea], the IC50 in assay [1] fell in the range of 10 to 100 nM; in assay [2], 100 to 1000 nM.

For the molecule `Cc1nc2c(Cl)c(N)nc(-c3ccc(F)c(F)c3)n2n1` [Compound 141, 8-chloro-5-(3,4-difluorophenyl)-2-methyl-[1,2,4]triazolo[1,5-c]pyrimidin-7-amine], the IC50 in assay [1] fell in the range of 10 to 100 nM; in assay [2] it was 100 to 1000 nM.

With `Cc1nc2cc(N)nc(-c3cccc(F)c3)n2n1` [Compound 142, 5-(3-fluorophenyl)-2-methyl-[1,2,4]triazolo[1,5-c]pyrimidin-7-amine], the IC50 was 10 to 100 nM in assay [1] and 100 to 1000 nM in assay [2].

Consider `Cc1nc2cc(NC(=O)C(F)(F)F)nc(-c3ccco3)n2n1` [Compound 143, 2,2,2-trifluoro-N-[5-(furan-2-yl)-2-methyl-[1,2,4]triazolo[1,5-c]pyrimidin-7-yl]acetamide], for which the IC50 lay in the range of 10 to 100 nM in assay [1] and 100 to 1000 nM in assay [2].

With `Cc1nc2cc(NC(=O)C(F)F)nc(-c3ccco3)n2n1` [Compound 144, 2,2-difluoro-N-[5-(furan-2-yl)-2-methyl-[1,2,4]triazolo[1,5-c]pyrimidin-7-yl]acetamide], the IC50 in assay [1] and in assay [2] was under 10 nM each time.

Consider `Cc1nc2cc(NC(=O)CF)nc(-c3ccco3)n2n1` [Compound 145, 2-fluoro-N-[5-(furan-2-yl)-2-methyl-[1,2,4]triazolo[1,5-c]pyrimidin-7-yl]acetamide], for which the IC50 in assay [1] and in assay [2] was 10 to 100 nM in each case.

Consider `Cc1nc2c(Cl)c(N)nc(-c3cccc(F)c3)n2n1` [Compound 146, 8-chloro-5-(3-fluorophenyl)-2-methyl-[1,2,4]triazolo[1,5-c]pyrimidin-7-amine], for which the IC50 in assay [1] is under 10 nM; in assay [2], 10 to 100 nM.

With `Cc1ccc(-c2nc3[nH]c(C(C)(C)O)cc3c3nc(C(F)(F)F)nn23)o1` [Compound 147, 2-[7-(5-methylfuran-2-yl)-4-(trifluoromethyl)-3,5,6,8,10-pentazatricyclo[7.3.0.0^2,6]dodeca-1(9),2,4,7,11-pentaen-11-yl]propan-2-ol], the half-inhibitory concentration (IC50) in assay [1] and in assay [2] was under 10 nM throughout.

Turning to `O=C(Nc1cc2nc(C(F)F)nn2c(-c2ccco2)n1)C1CC1` [Compound 148, N-[2-(difluoromethyl)-5-(furan-2-yl)-[1,2,4]triazolo[1,5-c]pyrimidin-7-yl]cyclopropanecarboxamide], the half-inhibitory concentration (IC50) in assay [1] and in assay [2] was under 10 nM throughout.

In the case of `O=C(Nc1cc2nc(CF)nn2c(-c2ccco2)n1)C1CC1` [Compound 149, N-[2-(fluoromethyl)-5-(furan-2-yl)-[1,2,4]triazolo[1,5-c]pyrimidin-7-yl]cyclopropanecarboxamide], the values for the IC50 in assay [1] and in assay [2] were under 10 nM and 10 to 100 nM, respectively.

On to `CC(=O)Nc1cc2nc(C3CNC3)nn2c(-c2ccc(C)o2)n1` [Compound 150, N-[2-(azetidin-3-yl)-5-(5-methylfuran-2-yl)-[1,2,4]triazolo[1,5-c]pyrimidin-7-yl]acetamide], for which the IC50 in assay [1] was 100 to 1000 nM; in assay [2] it was over 1000 nM.

`CC(=O)Nc1cc2nc(C3CN(C)C3)nn2c(-c2ccco2)n1` [Compound 151, N-[5-(furan-2-yl)-2-(1-methylazetidin-3-yl)-[1,2,4]triazolo[1,5-c]pyrimidin-7-yl]acetamide]: the IC50 in assay [1] was 10 to 100 nM; in assay [2], over 1000 nM.

For `Cc1nc2cc(NC(N)=O)nc(-c3ccco3)n2n1` [Compound 152, [5-(furan-2-yl)-2-methyl-[1,2,4]triazolo[1,5-c]pyrimidin-7-yl]urea], the half-maximal inhibitory concentration (IC50) in assay [1] and in assay [2] was 10 to 100 nM each time.

For the molecule `Cc1ccc(-c2nc3[nH]ncc3c3nc(C(F)(F)F)nn23)o1` [Compound 153, 7-(5-methylfuran-2-yl)-4-(trifluoromethyl)-3,5,6,8,10,11-hexazatricyclo[7.3.0.0^2,6]dodeca-1(9),2,4,7,11-pentaene], the figures for the IC50 in assay [1] and in assay [2] were under 10 nM and 10 to 100 nM, respectively.

With `CCCNC(=O)Nc1cc2nc(C)nn2c(-c2ccco2)n1` [Compound 154, 1-[5-(furan-2-yl)-2-methyl-[1,2,4]triazolo[1,5-c]pyrimidin-7-yl]-3-propylurea], the IC50 in assay [1] and in assay [2] was 10 to 100 nM throughout.

`CCNC(=O)Nc1cc2nc(C)nn2c(-c2ccco2)n1` [Compound 155, 1-ethyl-3-[5-(furan-2-yl)-2-methyl-[1,2,4]triazolo[1,5-c]pyrimidin-7-yl]urea]: the IC50 in assay [1] and in assay [2] was 10 to 100 nM throughout.

Regarding `Cc1nc2cc(NC(=O)NCC(C)C)nc(-c3ccco3)n2n1` [Compound 156, 1-[5-(furan-2-yl)-2-methyl-[1,2,4]triazolo[1,5-c]pyrimidin-7-yl]-3-(2-methylpropyl)urea], the IC50 in assay [1] is under 10 nM; in assay [2], 10 to 100 nM.

As to `Cc1nc2cc(NC(=O)NCCN3CCCC3)nc(-c3ccco3)n2n1` [Compound 157, 1-[5-(furan-2-yl)-2-methyl-[1,2,4]triazolo[1,5-c]pyrimidin-7-yl]-3-(2-pyrrolidin-1-ylethyl)urea], the IC50 was under 10 nM in assay [1] and 10 to 100 nM in assay [2].

With `Cc1nc2cc(NC(=O)NCCN3CCCCC3)nc(-c3ccco3)n2n1` [Compound 158, 1-[5-(furan-2-yl)-2-methyl-[1,2,4]triazolo[1,5-c]pyrimidin-7-yl]-3-(2-piperidin-1-ylethyl)urea], the IC50 was under 10 nM in assay [1] and 10 to 100 nM in assay [2].

Regarding `Cc1nc2cc(NC(=O)NCCN3CCOCC3)nc(-c3ccco3)n2n1` [Compound 159, 1-[5-(furan-2-yl)-2-methyl-[1,2,4]triazolo[1,5-c]pyrimidin-7-yl]-3-(2-morpholin-4-ylethyl)urea], the IC50 in assay [1] is under 10 nM; in assay [2] it was 10 to 100 nM.

In the case of `Nc1nc(-c2ccccc2)n2nc(C(F)F)nc2c1Cl` [Compound 160, 8-chloro-2-(difluoromethyl)-5-phenyl-[1,2,4]triazolo[1,5-c]pyrimidin-7-amine], the values for the IC50 in assay [1] and in assay [2] were under 10 nM and 10 to 100 nM, respectively.

Consider `Cc1nc2c3nc(C(F)(F)F)[nH]c3nc(-c3ccc(C)o3)n2n1` [Compound 161, 8-methyl-5-(5-methylfuran-2-yl)-2-(trifluoromethyl)-3H-[1,2,4]triazolo[5,1-f]purine], for which the IC50 in assay [1] and in assay [2] was 100 to 1000 nM throughout.

Regarding `Cc1ccc(-c2nc3[nH]c(C(C)(C)O)cc3c3nc(C(C)C)nn23)o1` [Compound 162, 2-[7-(5-methylfuran-2-yl)-4-propan-2-yl-3,5,6,8,10-pentazatricyclo[7.3.0.0^2,6]dodeca-1(9),2,4,7,11-pentaen-11-yl]propan-2-ol], the values for the half-maximal inhibitory concentration (IC50) in assay [1] and in assay [2] were under 10 nM and 10 to 100 nM, respectively.

Consider `Cc1nc2cc(NC(=O)NC(C)C)nc(-c3ccco3)n2n1` [Compound 163, 1-[5-(furan-2-yl)-2-methyl-[1,2,4]triazolo[1,5-c]pyrimidin-7-yl]-3-propan-2-ylurea], for which the IC50 was under 10 nM in assay [1] and 10 to 100 nM in assay [2].
